Measured values from patent publication US10987349B2, “Antitumor agent and bromodomain inhibitor” (FUJIFILM Corporation, priority 2016, dated 2021).

Key:
HCT-15 = assay: Cell growth test (Cell Titer Blue) HCT-15; format: cell-based; conditions: Homo sapiens, 72 h, HCT-15, Colon cancer, 3 days
Protocol: (§1) Moreover, the compound of Example 14 was subjected to a cell growth test using various types of cell lines.
(§2) All cell lines other than the below-noticed cells were each seeded in a well plate, in which an RPMI-1640 medium supplemented with penicillin/streptomycin and FBS with a final concentration of 10% was placed. The human prostate cancer cell line VCaP (ATCC) was seeded in a well plate, in which DMEM medium supplemented with penicillin/streptomycin and FBS with a final concentration of 10% was placed. […] Thereafter, using Enspire Multimode Plate Reader (PerkinElmer), the amount of fluorescence at an excitation wavelength of 531 nm and a fluorescence wavelength of 615 nm was measured. Since the amount of fluorescence is in proportion to the concentration of a florescent product resorufin that is converted from resazurin as a redox dye by living cells, the amount of fluorescence was used as an indicator of the number of living cells. The growth inhibition percentage of the test compound in each concentration was calculated according to the following equation. Growth inhibition percentage (%)=(amount of fluorescence in test compound−added well)/(amount of fluorescence in DMSO−added well)×100 […]

KM12 = assay: Cell growth test (Cell Titer Blue) KM12; format: cell-based; conditions: Homo sapiens, 72 h, KM12, Colon cancer, 3 days
Protocol: as §1, §2

NOMO-1 = assay: Cell growth test (Cell Titer Blue) NOMO-1; format: cell-based; conditions: Homo sapiens, 72 h, NOMO-1, Acute myeloid leukemia, 3 days
Protocol: as §1, §2

HL-60 = assay: Cell growth test (Cell Titer Blue) HL-60; format: cell-based; conditions: Homo sapiens, 72 h, HL-60, Acute myeloid leukemia, 3 days
Protocol: as §1, §2

KG-1A = assay: Cell growth test (Cell Titer Blue) KG-1A; format: cell-based; conditions: Homo sapiens, 72 h, Acute myeloid leukemia, 3 days
Protocol: as §1, §2

CCRF-CEM = assay: Cell growth test (Cell Titer Blue) CCRF-CEM; format: cell-based; conditions: Homo sapiens, 72 h, Acute lymphoblastic leukemia, 3 days
Protocol: as §1, §2

MOLT-3 = assay: Cell growth test (Cell Titer Blue) MOLT-3; format: cell-based; conditions: Homo sapiens, 72 h, MOLT-3, Acute lymphoblastic leukemia, 3 days
Protocol: as §1, §2

SK-HEP-1 = assay: Cell growth test (Cell Titer Blue) SK-HEP-1; format: cell-based; conditions: Homo sapiens, SK-HEP1, 72 h, SK-HEP-1, Liver cancer, 3 days
Protocol: as §1, §2

[1] = system: human lymphoma cell line OCI-Ly7; assay: Cell growth test (Cell Titer Blue) OCI-LY7; format: cell-based; conditions: 72 h, 3 days
Protocol: as §1, §2

MDA-MB-468 = assay: Cell growth test (Cell Titer Blue) MDA-MB-468; format: cell-based; conditions: Homo sapiens, 72 h, MDA-MB-468, Breast cancer, 3 days
Protocol: as §1, §2

T47D = assay: Cell growth test (Cell Titer Blue) T47D; format: cell-based; conditions: Homo sapiens, 72 h, Breast cancer, 3 days
Protocol: as §1, §2

MDA-MB-435 = assay: Cell growth test (Cell Titer Blue) MDA-MB-435; format: cell-based; conditions: Homo sapiens, 72 h, MDA-MB-435, Melanoma, 3 days
Protocol: as §1, §2

MM.1S = assay: Cell growth test (Cell Titer Blue) MM.1S; format: cell-based; conditions: Homo sapiens, MM1.S, 72 h, Myeloma, 3 days
Protocol: as §1, §2

LNCaP = assay: Cell growth test (Cell Titer Blue) LNCaP; format: cell-based; conditions: Homo sapiens, 72 h, Prostate cancer, 3 days
Protocol: as §1, §2

DU-145 = assay: Cell growth test (Cell Titer Blue) DU-145; format: cell-based; conditions: Homo sapiens, 72 h, DU-145, Prostate cancer, 3 days
Protocol: as §1, §2

Saos-2 = assay: Cell growth test (Cell Titer Blue) Saos-2; format: cell-based; conditions: Homo sapiens, 72 h, Saos-2, Sarcoma, 3 days
Protocol: as §1, §2

HEXIM1 gene = assay: Expression of HEXIM1 gene in MV4-11 cells, RT-PCR; format: cell-based, human; conditions: MV4-11 cells, 10, 30 or 100 nmol/L, 6 hours
Protocol: A fluctuation in the expression of c-Myc, IL-7R and HEXIM1 genes in MV4-11 (ATCC) cells treated with the test compound was analyzed according to a reverse transcription polymerase chain reaction (RT-PCR) method.
MV4-11 cells were cultured for 6 hours in an RPMI-1640 medium supplemented with penicillin/streptomycin and FBS with a final concentration of 10%, to which the compound of Example 14 was added to a concentration of 10 nmol/L, 30 nmol/L or 100 nmol/L. On the other hand, a non-treatment group (Non-treatment) was established by culturing MV4-11 cells for 6 hours in the above-described medium, to which the compound of Example 14 was not added. Using Rneasy (registered trademark) (Qiagen), RNA was extracted from the above-described MV4-11 cells in accordance with the instruction manual included with the aforementioned device. […] Thereafter, a PCR reaction was carried out for 40 cycles (a cycle consisting of 95° C.-5 seconds and 60° C.-30 seconds.) Subsequently, the obtained reaction product was measured.
As a housekeeping gene, the expression level of GAPDH (Glyceraldehyde 3-phosphate dehydrogenase) was also evaluated. The ratio of the expression level of the mRNA of each of c-Myc, IL-7R and HEXIM1 to the expression level of GAPDH was calculated, and the expression level of each gene (relative expression level) was then quantified. […]

GI50 (HCT-15): 505 nM | GI50 (HL-60): 27 nM | GI50 (CCRF-CEM): 65 nM | GI50 (MOLT-3): 317 nM | GI50 (SK-HEP-1): 2500 nM | GI50 [1]: 274 nM | GI50 (MDA-MB-468): 1200 nM | GI50 (T47D): 286 nM | GI50 (MDA-MB-435): 2780 nM | GI50 (MM.1S): 84 nM | GI50 (LNCaP): 64 nM | GI50 (DU-145): 1430 nM
SMILES: CCn1c(=O)cc(C2CCN(C)CC2)c2cc(C(=O)N(C)c3ccc(C)cc3)ccc21 [Example 14, 1-Ethyl-N-methyl-N-(4-methylphenyl)-4-(1-methylpiperidin-4-yl)-2-oxo-1,2-dihydroquinoline-6-carboxamide]
GI50 (KM12): 1490 nM | GI50 (NOMO-1): 62 nM | GI50 (KG-1A): 119 nM | GI50 (Saos-2): 2620 nM | mRNA expression of HEXIM1 (GAPDH correction) (HEXIM1 gene): increased
